Test system: MV-4-11 cells
Assay: Gene expression microarray analysis (Affymetrix PrimeView) and GSEA
Assay type: cell-based, human
Design: RFU PODN (11730768_x_at) / Fold change /veh PODN (11730768_x_at) / RFU LINC00158 (11744669_a_at) / Fold change /veh LINC00158 (11744669_a_at) / RFU DUSP10 (11751237_a_at) / Fold change /veh DUSP10 (11751237_a_at) / RFU ID3 (11757404_x_at) / Fold change /veh ID3 (11757404_x_at) / RFU PLEKHG5 (11737974_s_at) / Fold change /veh PLEKHG5 (11737974_s_at) / RFU LRRC4B (11730491_at) / Fold change /veh LRRC4B (11730491_at) / RFU GIMAP4 (11747438_a_at) / Fold change /veh GIMAP4 (11747438_a_at) / RFU KRT8 (11758183_x_at) / Fold change /veh KRT8 (11758183_x_at) / RFU CNN1 (11734310_a_at) / Fold change /veh CNN1 (11734310_a_at) / RFU VPS37D (11726825_at) / Fold change /veh VPS37D (11726825_at) / RFU C10orf10 (11716522_x_at) / Fold change /veh C10orf10 (11716522_x_at) / RFU KIR2DL2 /// KIR2DL4 /// KIR2DL5A /// KIR2DL5B /// KIR2DS1 /// KIR2DS2 /// KIR2DS3 /// KIR2DS4 /// KIR3DL3 /// KIR3DL3 /// KIR3DS1 (11738374_at) / Fold change /veh KIR2DL2 /// KIR2DL4 /// KIR2DL5A /// KIR2DL5B /// KIR2DS1 /// KIR2DS2 /// KIR2DS3 /// KIR2DS4 /// KIR3DL3 /// KIR3DL3 /// KIR3DS1 (11738374_at) / RFU C1QL1 (11718748_at) / Fold change /veh C1QL1 (11718748_at) / RFU TMPRSS4 (11747572_a_at) / Fold change /veh TMPRSS4 (11747572_a_at) / RFU HAMP (11756126_x_at) / Fold change /veh HAMP (11756126_x_at) / RFU RNFT2 (11725882_a_at) / Fold change /veh RNFT2 (11725882_a_at) / RFU NR4A2 (11747474_a_at) / Fold change /veh NR4A2 (11747474_a_at) / RFU ABCC12 (11746883_a_at) / Fold change /veh ABCC12 (11746883_a_at) / RFU TMEM136 (11760407_x_at) / Fold change /veh TMEM136 (11760407_x_at) / RFU CLDN22 /// WWC2 (11732394_at) / Fold change /veh CLDN22 /// WWC2 (11732394_at) / RFU HLA-DPB1 (11760878_x_at) / Fold change /veh HLA-DPB1 (11760878_x_at) / RFU SPINT1 (11716480_a_at) / Fold change /veh SPINT1 (11716480_a_at) / RFU GAP43 (11754022_s_at) / Fold change /veh GAP43 (11754022_s_at) / RFU A4GNT (11735810_at) / Fold change /veh A4GNT (11735810_at) / RFU PRB3 (11715151_x_at) / Fold change /veh PRB3 (11715151_x_at) / RFU TUBB4B (11761932_at) / Fold change /veh TUBB4B (11761932_at) / RFU CAPN14 (11732068_a_at) / Fold change /veh CAPN14 (11732068_a_at) / RFU TMCC2 (11721928_a_at) / Fold change /veh TMCC2 (11721928_a_at) / RFU IRGQ (11745062_a_at) / Fold change /veh IRGQ (11745062_a_at) / RFU FAM174B (11720279_a_at) / Fold change /veh FAM174B (11720279_a_at) / RFU TMPRSS4 (11748680_a_at) / Fold change /veh TMPRSS4 (11748680_a_at) / RFU FAM212B (11763350_a_at) / Fold change /veh FAM212B (11763350_a_at) / RFU PLEKHG5 (11743358_a_at) / Fold change /veh PLEKHG5 (11743358_a_at) / RFU ZSCAN30 (11745921_a_at) / Fold change /veh ZSCAN30 (11745921_a_at) / RFU CMKLR1 (11741424_a_at) / Fold change /veh CMKLR1 (11741424_a_at) / RFU LOC101060620 /// MAPK8IP1 (11723275_at) / Fold change /veh LOC101060620 /// MAPK8IP1 (11723275_at) / RFU SPTSSB (11747773_x_at) / Fold change /veh SPTSSB (11747773_x_at) / RFU PRSS12 (11739890_at) / Fold change /veh PRSS12 (11739890_at) / RFU BIN1 (11741810_x_at) / Fold change /veh BIN1 (11741810_x_at) / RFU WNT11 (11732464_a_at) / Fold change /veh WNT11 (11732464_a_at) / RFU C10orf10 (11716521_a_at) / Fold change /veh C10orf10 (11716521_a_at) / RFU C5orf56 (11738089_at) / Fold change /veh C5orf56 (11738089_at) / RFU CYB561 (11721691_x_at) / Fold change /veh CYB561 (11721691_x_at) / RFU ANKRD19P (11752326_a_at) / Fold change /veh ANKRD19P (11752326_a_at) / RFU OR2T12 /// OR2T33 /// OR2T8 (11738714_s_at) / Fold change /veh OR2T12 /// OR2T33 /// OR2T8 (11738714_s_at) / RFU VCAN (11748164_a_at) / Fold change /veh VCAN (11748164_a_at) / RFU JSRP1 (11732532_at) / Fold change /veh JSRP1 (11732532_at) / RFU KRTAP10-11 (11738290_x_at) / Fold change /veh KRTAP10-11 (11738290_x_at) / RFU MYO3A (11730013_a_at) / Fold change /veh MYO3A (11730013_a_at) / RFU EBF3 (11725865_a_at) / Fold change /veh EBF3 (11725865_a_at) / RFU CAMK2N1 (11719241_x_at) / Fold change /veh CAMK2N1 (11719241_x_at) / RFU C5orf56 (11738088_a_at) / Fold change /veh C5orf56 (11738088_a_at) / RFU OLFML3 (11715873_a_at) / Fold change /veh OLFML3 (11715873_a_at) / RFU LOC100653217 /// NTM (11731650_a_at) / Fold change /veh LOC100653217 /// NTM (11731650_a_at) / RFU MAPK11 (11762145_a_at) / Fold change /veh MAPK11 (11762145_a_at) / RFU FIZ1 (11724087_x_at) / Fold change /veh FIZ1 (11724087_x_at) / RFU OASL (11726364_x_at) / Fold change /veh OASL (11726364_x_at) / RFU SOX15 (11748057_x_at) / Fold change /veh SOX15 (11748057_x_at) / RFU CD79A (11719716_a_at) / Fold change /veh CD79A (11719716_a_at) / RFU HIST1H1D (11736915_at) / Fold change /veh HIST1H1D (11736915_at) / RFU CASKIN2 (11723855_a_at) / Fold change /veh CASKIN2 (11723855_a_at) / RFU LOC730098 (11760151_x_at) / Fold change /veh LOC730098 (11760151_x_at) / RFU OR4N2 (11742367_at) / Fold change /veh OR4N2 (11742367_at) / RFU PRRT2 (11749266_a_at) / Fold change /veh PRRT2 (11749266_a_at) / RFU SNX32 (11753110_a_at) / Fold change /veh SNX32 (11753110_a_at) / RFU CDHR5 (11726645_a_at) / Fold change /veh CDHR5 (11726645_a_at) / RFU RCAN1 (11760418_a_at) / Fold change /veh RCAN1 (11760418_a_at) / RFU FAM167A (11723789_a_at) / Fold change /veh FAM167A (11723789_a_at) / RFU FAM26E (11764081_at) / Fold change /veh FAM26E (11764081_at) / RFU ISYNA1 (11749810_s_at) / Fold change /veh ISYNA1 (11749810_s_at) / RFU ACY1 (11761880_at) / Fold change /veh ACY1 (11761880_at) / RFU 11764098_at / Fold change /veh 11764098_at / RFU SAMD14 (11745864_x_at) / Fold change /veh SAMD14 (11745864_x_at) / RFU NPB (11741838_a_at) / Fold change /veh NPB (11741838_a_at) / RFU TMPRSS6 (11731388_a_at) / Fold change /veh TMPRSS6 (11731388_a_at) / RFU KRTAP10-2 (11738614_at) / Fold change /veh KRTAP10-2 (11738614_at) / RFU ARHGAP8 /// PRR5-ARHGAP8 (11727945_x_at) / Fold change /veh ARHGAP8 /// PRR5-ARHGAP8 (11727945_x_at) / RFU KRTAP5-7 /// NADSYN1 (11734609_at) / Fold change /veh KRTAP5-7 /// NADSYN1 (11734609_at) / RFU RASL12 (11751679_a_at) / Fold change /veh RASL12 (11751679_a_at) / RFU CDKN2B (11736163_a_at) / Fold change /veh CDKN2B (11736163_a_at) / RFU PRF1 (11729649_at) / Fold change /veh PRF1 (11729649_at) / RFU, ZNF638 /// ZNF638-IT1 / Fold change vs veh, ZNF638 /// ZNF638-IT1 / RFU, PANK3 / Fold change vs veh, PANK3 / RFU, SH3YL1 / Fold change vs veh, SH3YL1 / RFU, ZEB2 / Fold change vs veh, ZEB2 / RFU, NRIP1 / Fold change vs veh, NRIP1 / RFU, PTTG1IP / Fold change vs veh, PTTG1IP / RFU, CAPN2 / Fold change vs veh, CAPN2 / RFU, MED14 / Fold change vs veh, MED14 / RFU, SNORA58 / Fold change vs veh, SNORA58 / RFU, C1orf63 / Fold change vs veh, C1orf63 / RFU, LRRFIP1 / Fold change vs veh, LRRFIP1 / RFU, NDUFAF7 / Fold change vs veh, NDUFAF7 / RFU, SLC12A2 / Fold change vs veh, SLC12A2 / RFU, IBTK / Fold change vs veh, IBTK / RFU, ESF1 / Fold change vs veh, ESF1 / Fold change vs veh, TMEM50B / RFU, TAOK1 / Fold change vs veh, TAOK1 / RFU, ACBD3 / Fold change vs veh, ACBD3 / RFU, TMA16 / Fold change vs veh, TMA16 / RFU, RWDD3 / Fold change vs veh, RWDD3 / RFU, BCAT1 / Fold change vs veh, BCAT1 / RFU, EDEM3 / Fold change vs veh, EDEM3 / RFU, TMEM33 / Fold change vs veh, TMEM33 / RFU, WDR75 / Fold change vs veh, WDR75 / RFU, AHCTF1 / Fold change vs veh, AHCTF1 / RFU, TFRC / Fold change vs veh, TFRC / RFU, ZDHHC17 / Fold change vs veh, ZDHHC17 / RFU, NOM1 / Fold change vs veh, NOM1 / RFU, ARL8B / Fold change vs veh, ARL8B / RFU, ZBTB11 / Fold change vs veh, ZBTB11 / RFU, TAMM41 / Fold change vs veh, TAMM41 / RFU, KIAA1704 /// LOC100996395 / Fold change vs veh, KIAA1704 /// LOC100996395 / RFU, ING1 / Fold change vs veh, ING1 / RFU, TRMT61B / Fold change vs veh, TRMT61B / RFU, FUBP3 / Fold change vs veh, FUBP3 / RFU, TP53 / Fold change vs veh, TP53 / RFU, TNKS2 / Fold change vs veh, TNKS2 / RFU, ZFP14 / Fold change vs veh, ZFP14 / RFU, ACTR2 / Fold change vs veh, ACTR2 / RFU, PPP3R1 / Fold change vs veh, PPP3R1 / RFU, PIK3R1 / Fold change vs veh, PIK3R1 / RFU, HNRNPA1 / Fold change vs veh, HNRNPA1 / RFU, RNF170 / Fold change vs veh, RNF170 / RFU, ZNF28 / Fold change vs veh, ZNF28 / RFU, RNGTT / Fold change vs veh, RNGTT / RFU, OGT / Fold change vs veh, OGT / RFU, BRD1 / Fold change vs veh, BRD1 / RFU, MARS / Fold change vs veh, MARS / RFU, ZNF655 / Fold change vs veh, ZNF655 / RFU, FAHD1 / Fold change vs veh, FAHD1 / RFU, BDP1 / Fold change vs veh, BDP1 / RFU, LRRCC1 / Fold change vs veh, LRRCC1 / RFU, ARID1A / Fold change vs veh, ARID1A / RFU, ZNF146 / Fold change vs veh, ZNF146 / RFU, ZNF330 / Fold change vs veh, ZNF330 / RFU, GPN3 / Fold change vs veh, GPN3 / RFU, C9orf123 / Fold change vs veh, C9orf123 / RFU, N4BP2L2 / Fold change vs veh, N4BP2L2 / RFU, ARFIP1 / Fold change vs veh, ARFIP1 / RFU, FAM179B / Fold change vs veh, FAM179B / RFU, BCL10 / Fold change vs veh, BCL10 / RFU, UHRF1BP1L / Fold change vs veh, UHRF1BP1L / RFU, BET1 / Fold change vs veh, BET1 / RFU, CNOT2 / Fold change vs veh, CNOT2 / RFU, ZNF268 / Fold change vs veh, ZNF268 / Fold change vs veh, ZNF507 / RFU, DGCR2 / Fold change vs veh, DGCR2 / RFU, WDSUB1 / Fold change vs veh, WDSUB1 / Fold change vs veh, HSP90B1 /// MIR3652 / RFU, ADSS / Fold change vs veh, ADSS / RFU, GK / Fold change vs veh, GK / RFU, ZNF148 / Fold change vs veh, ZNF148 / RFU, TAF9 / Fold change vs veh, TAF9 / RFU, SLC1A5 / Fold change vs veh, SLC1A5 / RFU, SLMO2 / Fold change vs veh, SLMO2 / RFU, ABCC4 / Fold change vs veh, ABCC4 / RFU, LOC101060439 /// RAP1B / Fold change vs veh, LOC101060439 /// RAP1B / RFU, RFX7 / Fold change vs veh, RFX7 / RFU, GTPBP10 / Fold change vs veh, GTPBP10 / RFU, CNEP1R1 / Fold change vs veh, CNEP1R1 / RFU, BIVM-ERCC5 /// ERCC5 / Fold change vs veh, BIVM-ERCC5 /// ERCC5 / RFU, ILF3 / Fold change vs veh, ILF3 / RFU 11762660_at / Fold change /veh 11762660_at / RFU VCAN (11757783_s_at) / Fold change /veh VCAN (11757783_s_at) / RFU DDX43 (11728927_at) / Fold change /veh DDX43 (11728927_at) / RFU KRT8 (11758188_x_at) / Fold change /veh KRT8 (11758188_x_at) / RFU NKD1 (11759106_at) / Fold change /veh NKD1 (11759106_at) / RFU SRD5A1 (11742802_a_at) / Fold change /veh SRD5A1 (11742802_a_at) / RFU TPSAB1 /// TPSB2 (11721975_s_at) / Fold change /veh TPSAB1 /// TPSB2 (11721975_s_at) / RFU GSTM3 (11746129_a_at) / Fold change /veh GSTM3 (11746129_a_at) / RFU IL23R (11737362_x_at) / Fold change /veh IL23R (11737362_x_at) / RFU TMEM51 (11727254_a_at) / Fold change /veh TMEM51 (11727254_a_at) / RFU PIWIL2 (11732686_x_at) / Fold change /veh PIWIL2 (11732686_x_at) / RFU ORM1 (11744905_x_at) / Fold change /veh ORM1 (11744905_x_at) / RFU CCDC152 (11743942_at) / Fold change /veh CCDC152 (11743942_at) / RFU ECM1 (11717891_a_at) / Fold change /veh ECM1 (11717891_a_at) / RFU IL23R (11748794_a_at) / Fold change /veh IL23R (11748794_a_at) / RFU TNFAIP8L3 (11732012_x_at) / Fold change /veh TNFAIP8L3 (11732012_x_at) / RFU MBOAT4 (11741988_at) / Fold change /veh MBOAT4 (11741988_at) / RFU 11764193_at / Fold change /veh 11764193_at / RFU TMEM53 (11763286_at) / Fold change /veh TMEM53 (11763286_at) / RFU MAGEB2 (11727129_at) / Fold change /veh MAGEB2 (11727129_at) / RFU TMEM200A (11744735_a_at) / Fold change /veh TMEM200A (11744735_a_at) / RFU CCDC152 (11751479_a_at) / Fold change /veh CCDC152 (11751479_a_at) / RFU FAM211A (11726209_a_at) / Fold change /veh FAM211A (11726209_a_at) / RFU RGS16 (11746705_a_at) / Fold change /veh RGS16 (11746705_a_at) / RFU VCAN (11755009_s_at) / Fold change /veh VCAN (11755009_s_at) / RFU RHOB (11743442_s_at) / Fold change /veh RHOB (11743442_s_at) / RFU RGS16 (11720943_a_at) / Fold change /veh RGS16 (11720943_a_at) / RFU RGS16 (11720944_at) / Fold change /veh RGS16 (11720944_at) / RFU, VPS4B / Fold change vs veh, VPS4B / RFU, CREB1 / Fold change vs veh, CREB1 / RFU, DNAJC13 / Fold change vs veh, DNAJC13 / RFU, GNAQ / Fold change vs veh, GNAQ / RFU, CDK5R1 / Fold change vs veh, CDK5R1 / RFU, ZRANB3 / Fold change vs veh, ZRANB3 / RFU, CUL4A / Fold change vs veh, CUL4A / RFU, CCNY / Fold change vs veh, CCNY / RFU, UFL1 / Fold change vs veh, UFL1 / RFU, COG3 / Fold change vs veh, COG3 / RFU, DIAPH2 / Fold change vs veh, DIAPH2 / RFU, SKA2 / Fold change vs veh, SKA2 / RFU, AFF3 / Fold change vs veh, AFF3 / RFU, LMF1 / Fold change vs veh, LMF1 / RFU, IPO11 / Fold change vs veh, IPO11 / RFU, DFFB / Fold change vs veh, DFFB / RFU, FOXP1 / Fold change vs veh, FOXP1 / RFU, CARD8 / Fold change vs veh, CARD8 / RFU, STRN3 / Fold change vs veh, STRN3 / RFU, ADK / Fold change vs veh, ADK / RFU, RASSF2 / Fold change vs veh, RASSF2 / RFU, WIPF1 / Fold change vs veh, WIPF1 / RFU, LARP1B / Fold change vs veh, LARP1B / RFU, RASA1 / Fold change vs veh, RASA1 / RFU, RB1 / Fold change vs veh, RB1 / RFU, PPFIA1 / Fold change vs veh, PPFIA1 / RFU, MAT2A / Fold change vs veh, MAT2A / RFU, CCT5 / Fold change vs veh, CCT5 / RFU, WDR92 / Fold change vs veh, WDR92 / RFU, CUX1 / Fold change vs veh, CUX1 / RFU, TTC7A / Fold change vs veh, TTC7A / RFU, TMEM135 / Fold change vs veh, TMEM135 / RFU, DEPTOR / Fold change vs veh, DEPTOR / RFU, CPM / Fold change vs veh, CPM / RFU, DNAJB6 / Fold change vs veh, DNAJB6 / RFU, CACNA2D3 / Fold change vs veh, CACNA2D3 / RFU, DTX4 / Fold change vs veh, DTX4 / RFU, TFCP2 / Fold change vs veh, TFCP2 / RFU, GMCL1 /// GMCL1P1 / Fold change vs veh, GMCL1 /// GMCL1P1 / RFU, AEBP2 / Fold change vs veh, AEBP2 / RFU, SNHG1 /// SNORD22 /// SNORD25 /// SNORD26 /// SNORD27 /// SNORD28 /// SNORD29 /// SNORD31 / Fold change vs veh, SNHG1 /// SNORD22 /// SNORD25 /// SNORD26 /// SNORD27 /// SNORD28 /// SNORD29 /// SNORD31 / Fold change (Aza/veh), C12orf56 (ProbeSet 11735607_a_at) / Fold change (ACY-1035/veh), C12orf56 (ProbeSet 11735607_a_at) / Fold change (Aza/veh), FGFR1OP (ProbeSet 11751329_s_at) / Fold change (ACY-1035/veh), FGFR1OP (ProbeSet 11751329_s_at) / Fold change (Aza/veh), VPS36 (ProbeSet 11739960_a_at) / Fold change (ACY-1035/veh), VPS36 (ProbeSet 11739960_a_at) / RFU SYPL1 (11715823_x_at) / Fold change /veh SYPL1 (11715823_x_at) / RFU IGFBP7 (11715501_s_at) / Fold change /veh IGFBP7 (11715501_s_at) / RFU REEP3 (11722064_at) / Fold change /veh REEP3 (11722064_at) / RFU IGLL1 (11728026_x_at) / Fold change /veh IGLL1 (11728026_x_at): dose or concentration left out as unconfirmed
Conditions: MV-4-11 cells, 48 hours

## Nc1ccc(-c2cccs2)cc1NC(=O)c1ccc2c(c1)cc(C1CC1)n2CCN1CCOCC1 [ACY-1035]
  Fold change /veh HLA-DPB1 (11760878_x_at): 1.16
